Reference: PMC9213889 (Frontiers in Chemistry, 2022)

How the values were obtained:
[1] = molecular target: α-glucosidase from Saccharomyces cerevisiae (EC 3.2.1.20) (Saccharomyces cerevisiae, UniProt P53341); test: biochemical; format: biochemical; conditions: for IC50: mean ± SD, quadruplicate, PBS pH 6.8, 37°C, 5% DMSO, read-out: α-glucosidase inhibition (IC50 μM)
[2] = molecular target: T1, α-amylase from hog pancreas (EC 3.2.1.1) (Sus scrofa, UniProt P00690); test: α-amylase inhibition assay (starch, DNS, absorbance at 540 nm)
T1 sequence (P00690 16-511): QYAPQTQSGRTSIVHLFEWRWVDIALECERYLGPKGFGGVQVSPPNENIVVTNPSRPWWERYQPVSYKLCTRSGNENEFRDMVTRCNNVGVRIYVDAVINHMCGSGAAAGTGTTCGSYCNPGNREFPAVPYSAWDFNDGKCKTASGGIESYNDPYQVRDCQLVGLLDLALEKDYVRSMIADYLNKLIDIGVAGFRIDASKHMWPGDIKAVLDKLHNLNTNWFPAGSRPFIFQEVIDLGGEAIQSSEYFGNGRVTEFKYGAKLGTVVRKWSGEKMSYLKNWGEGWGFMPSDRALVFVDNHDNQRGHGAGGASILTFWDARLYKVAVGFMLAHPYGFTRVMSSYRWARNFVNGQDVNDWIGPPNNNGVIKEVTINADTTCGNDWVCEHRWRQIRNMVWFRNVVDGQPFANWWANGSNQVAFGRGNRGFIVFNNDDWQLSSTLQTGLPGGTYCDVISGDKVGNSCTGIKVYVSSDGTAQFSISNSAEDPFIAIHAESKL
Method: All the compounds were dissolved in DMSO, and DMSO working concentration in the enzyme inhibition test was 5%.
Then, 100 μL starch solution (final concentration 0.5%) was added into the mixture and further incubated for 10 min. After 100 μL DNS (containing 1 M potassium sodium tartrate and 48 mM 3,5-dinitrosalicylic acid) was added, the mixture was boiled for 15 min. After diluting using 900 μL distilled water, the absorbance was measured at 540 nm. […] All experiments were carried out in quadruplicate.

α-glucosidase = molecular target: T2, α-glucosidase (Saccharomyces cerevisiae, UniProt P53341); test: Inhibition kinetics assay against α-glucosidase; format: biochemical
T2 construct: purchased Sigma-Aldrich
T2 sequence (P53341 whole entry): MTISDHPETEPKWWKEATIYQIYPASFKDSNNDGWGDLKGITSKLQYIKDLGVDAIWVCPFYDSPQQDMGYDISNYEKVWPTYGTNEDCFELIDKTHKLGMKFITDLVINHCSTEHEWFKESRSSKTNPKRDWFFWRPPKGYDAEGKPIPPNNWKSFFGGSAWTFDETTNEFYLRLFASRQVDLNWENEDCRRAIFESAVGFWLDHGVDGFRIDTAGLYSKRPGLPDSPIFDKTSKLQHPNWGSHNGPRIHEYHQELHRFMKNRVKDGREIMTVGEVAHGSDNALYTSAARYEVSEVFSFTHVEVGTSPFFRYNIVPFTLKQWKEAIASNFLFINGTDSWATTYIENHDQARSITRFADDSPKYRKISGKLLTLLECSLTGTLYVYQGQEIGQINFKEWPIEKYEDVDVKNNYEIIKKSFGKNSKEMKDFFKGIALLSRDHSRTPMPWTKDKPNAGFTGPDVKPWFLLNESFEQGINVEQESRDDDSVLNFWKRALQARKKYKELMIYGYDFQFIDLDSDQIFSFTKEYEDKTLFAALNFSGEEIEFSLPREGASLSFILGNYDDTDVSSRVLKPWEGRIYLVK
Method: The α-glucosidase inhibition assay of analogs 4a–4s was carried out as in previously reported methods, with minor modifications ([Xu et al., 2020]). Then, 10 μL α-glucosidase and 10 μL test sample (dissolved in DMSO) were added into 130 μL PBS (50 mM phosphate saline buffer, pH 6.8) and incubated for 10 min at 37°C. After adding 50 μL pNPG, the absorbance change of the mixture at 405 nm was monitored. Then, the percent inhibition was calculated ([Ademiluyi and Oboh, 2013]). All experiments were carried out in quadruplicate.
(§1) The inhibition kinetics of 4i and 4o against α-glucosidase and α-amylase, respectively, was investigated using a similar aforementioned inhibition assay method. The enzyme inhibitory kinetics was obtained by the plots of the enzymatic reaction rate vs. enzyme concentration with or without the inhibitor, and the substrate inhibitory kinetics was measured using the Lineweaver–Burk plot of the enzymatic reaction rate vs. substrate concentration with or without the inhibitor.

3T3-L1 cells = test: Cell cytotoxicity assay, 3T3-L1; format: cell-based; conditions: under a concentration of 100 μM
HepG2 cells = test: Cell cytotoxicity assay, HepG2; format: cell-based; conditions: under a concentration of 100 μM
α-amylase = molecular target: T3, α-amylase (Sus scrofa, UniProt P00690); test: Inhibition kinetics assay against α-amylase; format: biochemical, hog
T3 construct: α-amylase from hog pancreas (EC 3.2.1.1); purchased Sigma-Aldrich; host or cells: hog pancreas
T3 sequence (P00690 16-511): T1 sequence (P00690 16-511)
Method: All experiments were carried out in quadruplicate.
as §1

[3] = plots of enzymatic reaction rate vs. enzyme concentration pass through the origin

Sequence of α-glucosidase from Saccharomyces cerevisiae (EC 3.2.1.20) (P53341 whole entry): as above

| Structure (SMILES) | IC50 [1] [µM] | IC50 [2] [µM] | melting point [°C] | other results |
| --- | --- | --- | --- | --- |
| CC1(C)CC[C@]2(C(=O)O)CC[C@]3(C)C(=CCC4[C@@]5(C)C/C(=C\c6ccccc6)[C@H](O)C(C)(C)C5CC[C@]43C)C2C1 (some centres unmarked) [Compound 4a] | 1.9 ± 0.31 | 41.2 ± 2.99 |  |  |
| Cc1ccccc1/C=C1\C[C@@]2(C)C(CC[C@]3(C)C2CC=C2C4CC(C)(C)CC[C@]4(C(=O)O)CC[C@]23C)C(C)(C)[C@H]1O (some centres unmarked) [Compound 4b] | 0.61 ± 0.09 | 19.8 ± 1.22 | 210 to 211 |  |
| Cc1cccc(/C=C2\C[C@@]3(C)C(CC[C@]4(C)C3CC=C3C5CC(C)(C)CC[C@]5(C(=O)O)CC[C@]34C)C(C)(C)[C@H]2O)c1 (some centres unmarked) [Compound 4c] | 0.86 ± 0.05 | 51.1 ± 2.55 | 128 to 129 |  |
| Cc1ccc(/C=C2\C[C@@]3(C)C(CC[C@]4(C)C3CC=C3C5CC(C)(C)CC[C@]5(C(=O)O)CC[C@]34C)C(C)(C)[C@H]2O)cc1 (some centres unmarked) [Compound 4d] | 2.41 ± 0.08 | 62.2 ± 1.89 | 146 to 147 |  |
| COc1ccccc1/C=C1\C[C@@]2(C)C(CC[C@]3(C)C2CC=C2C4CC(C)(C)CC[C@]4(C(=O)O)CC[C@]23C)C(C)(C)[C@H]1O (some centres unmarked) [Compound 4e] | 1.92 ± 0.13 | 20.5 ± 2.29 | 200 to 201 |  |
| COc1cccc(/C=C2\C[C@@]3(C)C(CC[C@]4(C)C3CC=C3C5CC(C)(C)CC[C@]5(C(=O)O)CC[C@]34C)C(C)(C)[C@H]2O)c1 (some centres unmarked) [Compound 4f] | 1.63 ± 0.1 | 60.3 ± 1.88 | 200 to 201 |  |
| COc1ccc(/C=C2\C[C@@]3(C)C(CC[C@]4(C)C3CC=C3C5CC(C)(C)CC[C@]5(C(=O)O)CC[C@]34C)C(C)(C)[C@H]2O)cc1 (some centres unmarked) [Compound 4g] | 3.96 ± 0.21 | 59.1 ± 1.98 | 296 to 297 |  |
| CC1(C)CC[C@]2(C(=O)O)CC[C@]3(C)C(=CCC4[C@@]5(C)C/C(=C\c6ccccc6F)[C@H](O)C(C)(C)C5CC[C@]43C)C2C1 (some centres unmarked) [Compound 4h] | 0.83 ± 0.04 | 18.5 ± 1.39 | 165 to 166 |  |
| CC1(C)CC[C@]2(C(=O)O)CC[C@]3(C)C(=CCC4[C@@]5(C)C/C(=C\c6cccc(F)c6)[C@H](O)C(C)(C)C5CC[C@]43C)C2C1 (some centres unmarked) [Compound 4i] | 0.4 ± 0.02 | 20.3 ± 2.18 | 157 to 158 | α-glucosidase inhibition, times stronger than acarbose [1]: ~1,663 times; Inhibition type against α-glucosidase (α-glucosidase; Lineweaver–Burk plots, lines intersect in the second quadrant): mixed-type inhibitor; Reversibility of inhibition on α-glucosidase (α-glucosidase; [3]): reversible; Cell cytotoxicity against 3T3-L1 cells (3T3-L1 cells): non-cytotoxic effect; Cell cytotoxicity against HepG2 cells (HepG2 cells): non-cytotoxic effect |
| CC1(C)CC[C@]2(C(=O)O)CC[C@]3(C)C(=CCC4[C@@]5(C)C/C(=C\c6ccc(F)cc6)[C@H](O)C(C)(C)C5CC[C@]43C)C2C1 (some centres unmarked) [Compound 4j] | 1.23 ± 0.07 | 15.7 ± 1.53 | 226 to 227 |  |
| CC1(C)CC[C@]2(C(=O)O)CC[C@]3(C)C(=CCC4[C@@]5(C)C/C(=C\c6ccccc6Cl)[C@H](O)C(C)(C)C5CC[C@]43C)C2C1 (some centres unmarked) [Compound 4k] | 0.88 ± 0.04 | 45.4 ± 2.16 | 219 to 220 |  |
| CC1(C)CC[C@]2(C(=O)O)CC[C@]3(C)C(=CCC4[C@@]5(C)C/C(=C\c6cccc(Cl)c6)[C@H](O)C(C)(C)C5CC[C@]43C)C2C1 (some centres unmarked) [Compound 4l] | 0.45 ± 0.02 | 19.4 ± 0.73 | 242 to 243 |  |
| CC1(C)CC[C@]2(C(=O)O)CC[C@]3(C)C(=CCC4[C@@]5(C)C/C(=C\c6ccc(Cl)cc6)[C@H](O)C(C)(C)C5CC[C@]43C)C2C1 (some centres unmarked) [Compound 4m] | 1.73 ± 0.16 | 20.5 ± 1.09 | 196 to 197 |  |
| CC1(C)CC[C@]2(C(=O)O)CC[C@]3(C)C(=CCC4[C@@]5(C)C/C(=C\c6ccccc6Br)[C@H](O)C(C)(C)C5CC[C@]43C)C2C1 (some centres unmarked) [Compound 4n] | 0.72 ± 0.06 | 16.8 ± 1.04 | 234 to 235 |  |
| CC1(C)CCC2(C(=O)O)CCC3(C)C(=CCC4C5(C)CC(=Cc6cccc(Br)c6)C(O)C(C)(C)C5CCC43C)C2C1 (centres unmarked) [Compound 4o] | 0.52 ± 0.02 | 9.59 ± 0.58 | 197 to 198 | Cell cytotoxicity against 3T3-L1 cells (3T3-L1 cells): non-cytotoxic effect; Cell cytotoxicity against HepG2 cells (HepG2 cells): non-cytotoxic effect; Inhibition type against α-amylase (α-amylase; Lineweaver–Burk plots, lines intersect in the first quadrant): mixed-type inhibitor; Reversibility of inhibition on α-amylase (α-amylase; [3]): reversible |
| CC1(C)CC[C@]2(C(=O)O)CC[C@]3(C)C(=CCC4[C@@]5(C)C/C(=C\c6ccc(Br)cc6)[C@H](O)C(C)(C)C5CC[C@]43C)C2C1 (some centres unmarked) [Compound 4p] | 1.18 ± 0.14 | 19.5 ± 1.85 | 224 to 225 |  |
| CC1(C)CC[C@]2(C(=O)O)CC[C@]3(C)C(=CCC4[C@@]5(C)C/C(=C\c6ccccc6[N+](=O)[O-])[C@H](O)C(C)(C)C5CC[C@]43C)C2C1 (some centres unmarked) [Compound 4q] | 1.17 ± 0.1 | 20.2 ± 1.2 | 197 to 198 |  |
| CC1(C)CC[C@]2(C(=O)O)CC[C@]3(C)C(=CCC4[C@@]5(C)C/C(=C\c6cccc([N+](=O)[O-])c6)[C@H](O)C(C)(C)C5CC[C@]43C)C2C1 (some centres unmarked) [Compound 4r] | 1.08 ± 0.04 | 20.8 ± 1.88 | 191 to 192 |  |
| CC1(C)CC[C@]2(C(=O)O)CC[C@]3(C)C(=CCC4[C@@]5(C)C/C(=C\c6ccc([N+](=O)[O-])cc6)[C@H](O)C(C)(C)C5CC[C@]43C)C2C1 (some centres unmarked) [Compound 4s] | 1.22 ± 0.14 | 55.6 ± 2.52 | 219 to 220 |  |
